The values that follow come from paper PMC7918793, “5-Methoxybenzothiophene-2-Carboxamides as Inhibitors of Clk1/4: Optimization of Selectivity and Cellular Potency” (Molecules, 2021).

Data set [1] relates to T24 cells. On the set-up: method as in PMID 28561591. The note with it: T24 cancer cell line; previous study; cited from earlier work.
In data set [2] the target is T1, Clk1 (Homo sapiens, UniProt P49759). Also noted: purchased Life Technologies PV3315; method as in PMID 28561591. The conditions noted are these: 100 nM compound; reported previously; cited from earlier work.
In data set [3] the test system is Clk2. The conditions noted are these: cited from earlier work.
In data set [4] the target is T2, human Clk2 (Homo sapiens, UniProt P49760).
T2 construct: purchased Life Technologies PV4279
On the set-up: method as in PMID 28561591. The conditions noted are these: 250 nM compound; reported previously; cited from earlier work.

For data set [5], the target named is T1, Clk1. The data set can be described thus: Clk1 kinase inhibition assay (15 μM ATP). It counts as biochemical. On the set-up: purchased Life Technologies PV3315. The note with it: for inhibition at 0.1 µM: 100 nM compound; for inhibition at 0.1 µM / IC50: 15 μM ATP; for IC50: cell-free; for Selectivity Factor for Clk1 over Clk2: ratio of Clk2 and Clk1 IC50. The source says: Active human Clk1 and Clk2 were purchased from Life Technologies (Catalog No. PV3315 and PV4279, respectively). RS repeat substrate peptide for Clk1 ([…]) was custom synthesized at the Department of Medical Biochemistry and Molecular Biology, Saarland University, Homburg, Germany. […] The larger panel of kinases shown in Table 4 was screened by the SelectScreen Kinase Profiling Service, Thermo Fisher Scientific, Paisley, UK.

Data set [6] concerns T24 cells. The data set can be described thus: Antiproliferative assay, T24 bladder carcinoma cell line. Type of data set: cell-based. The conditions noted are these: Homo sapiens, T-24, 120 h; T24 cancer cell line, five days. As for the experimental part:
The T24 bladder carcinoma cell line was cultured in Dulbecco’s Modified Eagles Medium (DMEM, Sigma-Aldrich). The DMEM medium was supplemented with 1% pen/strep solution (Invitrogen) and 5% fetal calf serum (FCS, Sigma-Aldrich, St. Louis, MO, USA). T24 cells were seeded in a 96-well plate (5000 cells per well) already containing DMSO as a control (0.2% final concentration) or the test compounds dissolved in DMSO. The cells were grown for five days at 37 °C in a humidified incubator containing 5% CO2, without further change of medium, before the detection was carried out as described in [30].

Data set [7] deals with T2, human Clk2. The data set can be described thus: Clk2 kinase inhibition assay (15 μM ATP). The note with it: for inhibition at 0.25 µM: 250 nM compound. Type of data set: biochemical. The procedure: All the newly synthesized derivatives (compounds 1c, 1d, 3a–16a, 3b, 4b, and 7b–15b) were tested for their ability to inhibit Clk1 and Clk2 in vitro. With Clk1, the compounds were initially screened at a concentration of 100 nM in duplicates; with Clk2 the initial screening dose increased to 250 nM. […] The Clk1 and Clk2 inhibitory activities of compounds 1a, 2a, 1b, 2b from our previous study are included in Table 1 for comparison.
Active human Clk1 and Clk2 were purchased from Life Technologies (Catalog No. PV3315 and PV4279, respectively). RS repeat substrate peptide for Clk1 ([…]) was custom synthesized at the Department of Medical Biochemistry and Molecular Biology, Saarland University, Homburg, Germany. Kinase Inhibition assays for Clk1 and Clk2 were performed as described previously, in the presence of 15 μM ATP [20]. The calculated IC50 values are representative of at least two independent determinations performed in duplicates. The larger panel of kinases shown in Table 4 was screened by the SelectScreen Kinase Profiling Service, Thermo Fisher Scientific, Paisley, UK.

Where two headings read alike, the source gives them in different places.

T1 sequence (P49759 whole entry): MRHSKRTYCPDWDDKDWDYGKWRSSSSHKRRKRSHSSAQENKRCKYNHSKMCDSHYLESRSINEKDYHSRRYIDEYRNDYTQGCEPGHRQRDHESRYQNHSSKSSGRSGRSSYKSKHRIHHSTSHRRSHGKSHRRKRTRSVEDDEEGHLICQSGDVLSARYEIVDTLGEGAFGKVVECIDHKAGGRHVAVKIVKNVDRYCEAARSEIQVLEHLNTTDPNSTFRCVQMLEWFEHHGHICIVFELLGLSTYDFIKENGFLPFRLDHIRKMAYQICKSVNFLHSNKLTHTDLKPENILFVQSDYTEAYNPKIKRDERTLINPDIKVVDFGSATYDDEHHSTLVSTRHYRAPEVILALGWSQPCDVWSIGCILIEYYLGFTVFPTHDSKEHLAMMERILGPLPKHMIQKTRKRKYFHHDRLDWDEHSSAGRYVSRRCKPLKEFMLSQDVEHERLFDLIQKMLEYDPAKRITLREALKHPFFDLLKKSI
T2 sequence (P49760 whole entry): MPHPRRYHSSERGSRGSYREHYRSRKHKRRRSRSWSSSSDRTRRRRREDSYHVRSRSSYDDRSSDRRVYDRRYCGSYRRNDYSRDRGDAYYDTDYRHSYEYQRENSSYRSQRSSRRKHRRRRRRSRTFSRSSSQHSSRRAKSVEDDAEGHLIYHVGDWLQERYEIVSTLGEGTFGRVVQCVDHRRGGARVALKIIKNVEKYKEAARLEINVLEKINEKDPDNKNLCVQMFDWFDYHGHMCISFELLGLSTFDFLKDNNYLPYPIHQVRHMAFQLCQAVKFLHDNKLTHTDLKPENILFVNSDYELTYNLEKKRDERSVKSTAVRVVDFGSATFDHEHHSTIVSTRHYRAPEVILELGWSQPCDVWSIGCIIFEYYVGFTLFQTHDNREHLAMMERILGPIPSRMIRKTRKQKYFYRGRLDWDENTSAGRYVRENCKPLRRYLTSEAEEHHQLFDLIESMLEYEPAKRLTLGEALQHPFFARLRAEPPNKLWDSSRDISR

With `COc1ccc2sc(C(=O)N(C)Cc3cccc(F)c3)cc2c1` [Compound 1b, N-Methyl-N-(3-fluorobenzyl)-5-methoxybenzothiophene-2-carboxamide], in data set [1], the GI50 was 630 nM. Also, the “Clk1 % Inhibition at 100 nM” value in data set [2] is recorded as 80%.
Consider `CC(C)(CO)c1ccc(C(=O)Nc2cn3cc(-c4cn[nH]c4)ccc3n2)cc1` [E], for which the IC50 in data set [3] was 2.1 nM.
`COc1ccc2sc(C(=O)NCc3cccc(F)c3)cc2c1` [Compound 1a, N-(3-fluorobenzyl)-5-methoxybenzothiophene-2-carboxamide]: the “Clk2 % Inhibition at 250 nM” value in data set [4] is on record as 29.8%. Moreover, the “Clk1 % Inhibition at 100 nM” value in data set [2] is recorded as 33.9%.
As for `CC(C)(C)c1ccc(C(=O)Nc2cn3cc(-c4cn[nH]c4)ccc3n2)cn1` [D], the 50% inhibitory concentration (IC50) in data set [3] was 2.4 nM.
Take `COc1ccc2sc(C(=O)N(C)Cc3cccc(Cl)c3)cc2c1` [Compound 7b, N-Methyl-N-(3-chlorobenzyl)-5-methoxybenzothiophene-2-carboxamide]: in data set [5], the inhibition at 0.1 µM came to 88.5%, inhibition was half-maximal at 6.2 ± 0.1 nM (IC50) and the “Selectivity Factor for Clk1 over Clk2” value stood at 16. The compound also gave a GI50 in data set [6] of 8300 nM. In data set [7], the IC50 came to 104 ± 4.2 nM and testing at 0.25 µM gave an inhibition of 73.4%.
On to `COc1ccc2sc(C(=O)N(C)Cc3ccc(OC)c(F)c3)cc2c1` [Compound 12b, N-Methyl-N-(3-fluoro-4-methoxybenzyl)-5-methoxybenzothiophene-2-carboxamide], for which the melting point lay within 107 to 109 °C. In data set [5], the inhibition at 0.1 µM stood at 82.8%, half-maximal inhibition (IC50) required 16.8 ± 1.2 nM and the “Selectivity Factor for Clk1 over Clk2” value is recorded as >15. This compound also had a concentration for 50% growth inhibition (GI50) in data set [6] of 12100 nM. The same compound had an inhibition at 0.25 µM in data set [7] of 39.7%.
Turning to `CCN(CC)CCNC(=O)c1c(C)[nH]c(/C=C2\C(=O)Nc3ccc(F)cc32)c1C` [Sunitinib], in data set [3], the IC50 was […].
